Measured values from PubChem BioAssay (NCI).
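Cells were grown in 96-well plates and exposed to each compound for 48 hours at five concentrations; endpoints were interpolated linearly between bracketing concentrations, or set to the highest concentration if not reached. TGI is the concentration that stops growth completely.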 Where a SMILES comes first, the peptide text is derived from it. The star is where a group is joined. OBn = c1ccc(CO*)cc1

How the values were obtained:
Assay in all cases: inhibition of tumour cell growth, NCI panel, 48 h
[1] = system: OVCAR-3 ovarian
[2] = system: EKVX NSCLC
[3] = system: NCI-H522 lung
[4] = system: OVCAR-4 ovarian
[5] = system: T-47D breast
[6] = system: BT-549 breast
[7] = system: NCI/ADR-RES ovarian
[8] = system: OVCAR-5 ovarian
[9] = system: OVCAR-8 ovarian
[10] = system: NCI-H23 lung
[11] = system: HS 578T breast
[12] = system: ACHN renal

Compound | TGI [1] [µM] | TGI [2] [µM] | TGI [3] [µM] | TGI [4] [µM] | TGI [5] [µM] | TGI [6] [µM] | TGI [7] [µM] | TGI [8] [µM] | TGI [9] [µM] | TGI [10] [µM] | TGI [11] [µM] | TGI [12] [µM]
O=c1c2c3c(sc2nc2n1N=CN(c1ccc(Cl)cc1)C2)CCCC3 | > 100 | > 100 | > 100 | > 100 | > 100 | > 100 | > 100 | > 100 | > 100 | > 100 | 36.9 | > 100
NC(CCC(=O)OCc1ccccc1)C(=O)NC(CCC(=O)OCc1ccccc1)C(=O)O (centres undefined) (H-Glu(OBn)-Glu(OBn)-OH; configuration not given here) | > 100 | > 100 | > 100 | > 100 | > 100 | > 100 | > 100 | > 100 | > 100 | > 100 | > 100 | > 100
COc1ccc(C(=O)N2CCN(c3ccc4[nH]c(=O)oc4c3)CC2)cc1 | > 100 | > 100 | > 100 | > 100 | > 100 | > 100 | > 100 | > 100 | > 100 | > 100 | > 100 | > 100
C(/C=N/NC1=NCCCN1)=N\NC1=NCCCN1 | > 100 | > 100 | > 100 | > 100 | > 100 | > 100 | > 100 | > 100 | > 100 | > 100 | > 100 | > 100
COC(=O)C(Cc1c[nH]c2ccccc12)NP(=O)(O)OCC1OC(n2cc(F)c(=O)[nH]c2=O)CC1O (centres undefined) | > 100 | > 100 | > 100 | > 100 | > 100 | > 100 | > 100 | > 100 | > 100 | > 100 | > 100 | > 100
CCO/C(O)=C(/C(=N)N1CCCC1)C(=O)Nc1ccc(Cl)cc1 | > 100 | > 100 | > 100 | > 100 | > 100 | > 100 | > 100 | > 100 | > 100 | > 100 | > 100 | > 100
COc1ccccc1CNCc1nc2ccccc2[nH]1 | > 100 | > 100 | > 100 | > 100 | > 100 | > 100 | > 100 | > 100 | > 100 | > 100 | > 100 | > 100
O=c1[nH]c(=O)n(C2CC(O)C(CO)O2)c2nc3ccc4ccccc4c3nc12 (centres undefined) | > 100 | > 100 | > 100 | > 100 | > 100 | > 100 | > 100 | > 100 | > 100 | > 100 | > 100 | > 100
N#CC(C#N)=C1CCCCc2ccc([N+](=O)[O-])cc21 | > 100 | > 100 | 39.9 | > 100 | > 100 | > 100 | > 100 | > 100 | > 100 | > 100 | > 100 | > 100
CC(C)(C)C(=O)Nc1cccc(-c2ccc[nH]2)n1 | > 100 | > 100 | > 100 | > 100 | > 100 | > 100 | > 100 | > 100 | > 100 | > 100 | 87.5 | > 100
O=C(/C=C/c1cccs1)c1ccc(C(=O)/C=C/c2cccs2)cc1 | > 100 | > 100 | > 100 | > 100 | > 100 | > 100 | > 100 | > 100 | > 100 | > 100 | > 100 | > 100
Cc1n[nH]c(=O)n1/N=C/c1cccnc1 | > 100 | > 100 | > 100 | > 100 | > 100 | > 100 | > 100 | > 100 | > 100 | > 100 | > 100 | > 100
Cc1ccnc2nc3[nH]c4ccccc4c3cc12 | > 100 | > 100 | > 100 | > 100 | > 100 | > 100 | > 100 | > 100 | > 100 | > 100 | > 100 | > 100
CN(C)CCN1C(=O)c2ccccc2C1(O)c1ccc(Cl)cc1 (centres undefined) | > 100 | > 100 |  | > 100 | > 100 | > 100 | > 100 | > 100 | > 100 | > 100 | > 100 | > 100
C=CC(c1ccccc1)C1(O)c2cccc(O)c2C(=O)c2c(O)cccc21 (centres undefined) | 38.9 | 38.6 | 30.1 | 33.2 | 42.3 | 34.8 | 31.2 | 54.2 | 43 | 30.8 | 34.8 | 31.9
CC(=C(C(=O)O)C(=O)O)c1cc(-c2cccs2)cc(-c2ccc(Cl)cc2)c1O | 33.6 | 32.2 | 33.3 | > 71.9 | 21.3 | 34.4 | 57.2 | > 86.8 | 52.8 | 32.6 | > 90.7 | 29.4
O=C1OC2(c3ccc(O)cc3Oc3cc(O)ccc32)c2c1c(-c1ccccc1)c(-c1ccccc1)c(-c1ccccc1)c2-c1ccccc1 | > 100 | 59.1 | 32.6 | 80.7 | 71.4 | 53.8 | 98.2 | 49.3 | 45.2 |  | 47.7 | 40.9
CCn1c(SCC(=O)NNC(=S)Nc2ccc(F)cc2)nc2ccccc2c1=O | > 100 | > 100 | > 100 | > 100 | > 100 | > 100 | > 100 | > 100 | > 100 | > 100 | > 100 | > 100
